Reference: patent publication US20210380548A1, “Fused [1,2,4]Thiadiazine Derivatives Which Act as KAT Inhibitors of the MYST Family” (CTxT Pty Limited, priority 2017, published 2021)
pIC50: −log10 of the molar value.

Assays:
MOF-KAT8 [1] = biological target: T1, MOF-KAT8 (Homo sapiens, UniProt Q9H7Z6); experiment: Acetyltransferase biochemical assay (AlphaScreen), KAT8; conditions: Table 4 (MOF-KAT8); 0.4 μM Acetyl coenzyme A, histone H4, 20 nM enzyme
T1 sequence (Q9H7Z6 177-447): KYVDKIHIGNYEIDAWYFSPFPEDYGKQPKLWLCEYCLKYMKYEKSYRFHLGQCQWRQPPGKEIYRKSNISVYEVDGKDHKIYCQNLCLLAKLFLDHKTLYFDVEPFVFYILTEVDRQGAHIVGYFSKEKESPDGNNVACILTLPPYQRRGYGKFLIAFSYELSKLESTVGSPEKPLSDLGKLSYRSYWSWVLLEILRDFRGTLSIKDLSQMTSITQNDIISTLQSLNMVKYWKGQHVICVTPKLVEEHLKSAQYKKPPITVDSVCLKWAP

TIP60-KAT5 = biological target: T2, TIP60-KAT5 (Homo sapiens, UniProt Q92993); experiment: Revised Acetyltransferase Biochemical Assay, KAT5; conditions: 10 nM KAT5, 1 μM AcCoA, 100 nM histone H4, 90 min
T2 construct: encoding amino acid residues 2 to 461 (Uniprot Q92993-2) of human KAT5 isoform; made in house; host or cells: E. coli BL21 DE3
T2 sequence (Q92993 2-461 isoform Q92993-2): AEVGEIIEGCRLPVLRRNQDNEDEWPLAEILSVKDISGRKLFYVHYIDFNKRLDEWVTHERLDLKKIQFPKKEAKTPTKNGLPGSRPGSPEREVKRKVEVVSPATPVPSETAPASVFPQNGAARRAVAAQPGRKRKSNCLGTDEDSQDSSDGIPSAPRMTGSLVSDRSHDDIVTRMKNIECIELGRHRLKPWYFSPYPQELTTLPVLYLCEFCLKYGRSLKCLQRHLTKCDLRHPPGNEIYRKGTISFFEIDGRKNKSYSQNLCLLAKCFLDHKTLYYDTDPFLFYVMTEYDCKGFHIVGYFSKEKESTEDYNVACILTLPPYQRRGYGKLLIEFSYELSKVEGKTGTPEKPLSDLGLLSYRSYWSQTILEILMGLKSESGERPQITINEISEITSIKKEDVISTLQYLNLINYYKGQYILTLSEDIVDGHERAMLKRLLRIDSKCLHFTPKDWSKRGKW

MOF-KAT8 [2] = biological target: T1, MOF-KAT8; experiment: Revised Acetyltransferase Biochemical Assay, KAT8
[3] = system: histone H3 Lysine 14 acetylation (HBO1 mediated) in U2OS cells; experiment: Histone H3 Lysine 14 Acetylation Biomarker Assay (384-well, U2OS); assay type: cell-based; conditions: Homo sapiens, serum free medium, 24 hours incubation
Experimental: Compounds may be tested for their ability to inhibit acetylation of the histone H3 Lysine 14 (which is HBO1 mediated) marker in the following assay:
The cell line U2OS was seeded at a density of 3,000 cells per well in 384-well optical quality tissue culture plates in RPMI medium supplemented with 10% foetal bovine serum and 10 mM Hepes. The cells were allowed to adhere for 24 hours under standard culture conditions (37 degree Celsius, 5% CO2). At the end of this period the cells were washed with serum free medium. Compound dilutions prepared in DMSO were added to the serum free medium, with negative control wells reserved for treatment with DMSO only and 100% inhibition positive controls receiving a potent inhibitor compound (e.g. (Z)-4-fluoro-N-((3-hydroxyphenyl)sulfonyl)-5-methyl-[1,1′-biphenyl]-3-carbohydrazonic acid) at 10 μM concentration. After incubation for 24 hours, the cells were fixed with 4% formaldehyde in PBS for 15 minutes at room temperature, washed with phosphate buffer saline and blocked with blocking buffer containing 0.2% TritonX100 and 2% BSA. Anti-H3K14ac specific antibody (Cell Signalling Technologies) in blocking buffer was added and incubated overnight at 4 degree Celsius. After washing, a secondary antibody labelled with AlexaFluor 488 dye (ThermoFisher) and Hoechst 33342 (1 μg/mL, Life Technologies) were added for 2 hours incubation at room temperature. Plates were washed and read on a
PerkinElmer Opera HCS high content imaging platform. Using a Columbus image analysis pipeline, individual nuclei were located by Hoechst 33342 stain and the acetylation level was calculated from the AlexaFluor 488-related intensity in the same area. The resulting mean intensity per cell was converted to percent inhibition relative to controls on the same plate and the data fitted against a four-parameter logistic model to determine the 50% inhibitory concentration (IC50).

MOZ-KAT6A = biological target: T3, MOZ-KAT6A (Homo sapiens, UniProt Q92794, A567V); experiment: Revised Acetyltransferase Biochemical Assay, KAT6A; conditions: Table 8 (MOZ-KAT6A), 1 μM Acetyl coenzyme A
T3 construct: encoding amino acid residues 507 to 778 (Uniprot Q92794-1) of human KAT6A; made in house; host or cells: E. coli BL21 DE3
T3 sequence (Q92794 507-778 A567V limits assumed): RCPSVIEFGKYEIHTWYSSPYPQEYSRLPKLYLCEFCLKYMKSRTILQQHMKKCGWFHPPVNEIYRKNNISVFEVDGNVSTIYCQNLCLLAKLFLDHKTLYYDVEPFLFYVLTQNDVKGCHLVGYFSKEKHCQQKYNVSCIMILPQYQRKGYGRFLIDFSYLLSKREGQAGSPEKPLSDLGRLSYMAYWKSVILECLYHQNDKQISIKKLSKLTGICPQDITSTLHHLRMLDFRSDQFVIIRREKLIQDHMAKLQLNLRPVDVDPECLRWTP

HBO-KAT7 [4] = biological target: T4, HBO-KAT7 (Homo sapiens, UniProt O95251); experiment: Revised Acetyltransferase Biochemical Assay, KAT7; conditions: Table 9 (HBO-KAT7), 1 μM Acetyl coenzyme A
T4 construct: encoding amino acid residues 325 to 611 (Uniprot 095251-1) of human KAT7; made in house; host or cells: E. coli BL21 DE3 RIL
T4 sequence (O95251 with tags, fused parts or gaps): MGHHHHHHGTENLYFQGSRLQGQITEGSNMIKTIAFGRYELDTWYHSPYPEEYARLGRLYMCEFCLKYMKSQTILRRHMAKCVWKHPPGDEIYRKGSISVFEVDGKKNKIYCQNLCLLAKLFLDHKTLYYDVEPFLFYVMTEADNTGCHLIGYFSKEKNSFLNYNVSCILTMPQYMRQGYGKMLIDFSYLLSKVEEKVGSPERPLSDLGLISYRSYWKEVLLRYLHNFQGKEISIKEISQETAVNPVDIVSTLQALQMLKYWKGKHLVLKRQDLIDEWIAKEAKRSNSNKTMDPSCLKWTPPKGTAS

[5] = system: histone H2A.Z Lysine 7 acetylation (TIP60 mediated) in U2OS cells; experiment: H2A.Z Lysine 7 Acetylation Biomarker Assay (384-well, U2OS); assay type: cell-based; conditions: Homo sapiens, serum free medium, 24 hours incubation
Experimental: Compounds may be tested for their ability to inhibit the histone H2A.Z Lysine 7 acetylation marker (which is TIP60 mediated) in the following assay:
The cell line U2OS was seeded at a density of 3,000 cells per well in 384-well optical quality tissue culture plates in RPMI medium supplemented with 10% foetal bovine serum and 10 mM Hepes. The cells were allowed to adhere for 24 hours under standard culture conditions (37 degree Celsius, 5% CO2). At the end of this period the cells were washed with serum free medium. […] After incubation for 24 hours, the cells were fixed with 4% formaldehyde in PBS for 15 minutes at room temperature, washed with phosphate buffer saline and blocked with blocking buffer containing 0.2% TritonX100 and 2% BSA. Anti-H2A.ZK7ac specific antibody (Abcam) in blocking buffer was added and incubated overnight at 4 degree Celsius. After washing, a secondary antibody labelled with AlexaFluor 488 dye (ThermoFisher) and Hoechst 33342 (1 μg/mL, Life Technologies) were added for 2 hours incubation at room temperature. Plates were washed and read on a PerkinElmer Opera HCS high content imaging platform. Using a Columbus image analysis pipeline, individual nuclei were located by Hoechst 33342 stain and the acetylation level was calculated from the AlexaFluor 488-related intensity in the same area. The resulting mean intensity per cell was converted to percent inhibition relative to controls on the same plate and the data fitted against a four-parameter logistic model to determine the 50% inhibitory concentration (IC50).

HBO-KAT7 [6] = biological target: T4, HBO-KAT7; experiment: Acetyltransferase biochemical assay (AlphaScreen), KAT7; conditions: Table 3 (HBO-KAT7); 0.4 μM Acetyl coenzyme A, histone H3.1, 40 nM enzyme

| SMILES | pIC50 (MOF-KAT8 [1]) | pIC50 (TIP60-KAT5) | pIC50 (MOF-KAT8 [2]) | pIC50 [3] | pIC50 (MOZ-KAT6A) | pIC50 (HBO-KAT7 [4]) | pIC50 [5] | pIC50 (HBO-KAT7 [6]) |
| --- | --- | --- | --- | --- | --- | --- | --- | --- |
| O=C(NCC(c1cccc(Cl)c1)c1ncco1)C1=Nc2ccc(Cl)cc2S(=O)(=O)N1 (stereo not shown) [Example 162] | 5.38 | 5.81 | 4.46 | 5.19 | 7.54 | 6.29 | 4.96 |  |
| O=C(NCC(c1ccc(F)cc1)c1ncco1)C1=Nc2ccc(I)cc2S(=O)(=O)N1 (stereo not shown) [Example 164] | 4.53 | 6.11 | 4.46 | 5.68 | 7.77 | 6.62 | 5.55 |  |
| Cc1ccc(C(CNC(=O)C2=Nc3ccc(I)cc3S(=O)(=O)N2)c2ncco2)cc1 (stereo not shown) [Example 169] | 5.29 | 6.39 | 4.36 | 5.89 | 7.64 | 6.41 | 5.01 |  |
| COCc1nnc(C(CNC(=O)C2=Nc3ccc(I)cc3S(=O)(=O)N2)c2ccccc2)o1 (stereo not shown) [Example 171] | 4.38 | 5.94 | < 3.90 | 4.98 | 7.62 | 6.11 | < 4.40 |  |
| COc1cccc(C(CNC(=O)C2=Nc3ccc(I)cc3S(=O)(=O)N2)c2ncco2)c1 (stereo not shown) [Example 187, 7-iodo-N-(2-(3-methoxyphenyl)-2-(oxazol-2-yl)ethyl)-2H-benzo[e][1,2,4]thiadiazine-3-carboxamide 1,1-dioxide] | 4.64 | 6.62 | 4.85 | 6.31 | 7.82 | 6.94 | 5.26 |  |
| COc1cccc(C(CNC(=O)C2=Nc3ccc(Br)cc3S(=O)(=O)N2)c2ncco2)c1 (stereo not shown) [Example 188, 7-bromo-N-(2-(3-methoxyphenyl)-2-(oxazol-2-yl)ethyl)-2H-benzo[e][1,2,4]thiadiazine-3-carboxamide 1,1-dioxide] | 4.40 | 5.84 | 4.27 | 6.37 | 7.39 | 6.67 |  |  |
| Nc1nnc(C(CNC(=O)C2=Nc3ccc(I)cc3S(=O)(=O)N2)c2ccccc2)o1 (stereo not shown) [Example 189] | 5.10 | 5.55 | 4.54 | < 4.70 | 7.12 | 6.67 | < 4.40 |  |
| O=C(NCCc1ccccc1-n1ncc(CO)n1)C1=Nc2ccc(I)cc2S(=O)(=O)N1 [Example 190, N-(2-(4-(hydroxymethyl)-2H-1,2,3-triazol-2-yl)phenethyl)-7-iodo-2H-benzo[e][1,2,4]thiadiazine-3-carboxamide 1,1-dioxide] | 4.31 | 6.52 | 4.17 | 5.31 | 8.10 | 6.38 | 4.51 |  |
| O=C(NCC(c1cccc(O)c1)c1ncco1)C1=Nc2ccc(Br)cc2S(=O)(=O)N1 (stereo not shown) [Example 214, 7-Bromo-N-(2-(3-hydroxyphenyl)-2-(oxazol-2-yl)ethyl)-2H-benzo[e][1,2,4]thiadiazine-3-carboxamide 1,1-dioxide] | 5.15 | 7.15 | 4.70 | 5.44 | 8.05 | 7.30 | 5.06 |  |
| O=C(NCC(c1cccc(OCC2CC2)c1)c1ncco1)C1=Nc2ccc(I)cc2S(=O)(=O)N1 (stereo not shown) [Example 217, N-(2-(3-(Cyclopropylmethoxy)phenyl)-2-(oxazol-2-yl)ethyl)-7-iodo-2H-benzo[e][1,2,4]thiadiazine-3-carboxamide 1,1-dioxide] | 4.65 | 5.84 |  | 5.89 | 6.58 | 5.92 | 4.49 | 5.76 |
| O=C(NCC(CO)c1ccccc1)C1=Nc2ccc(Cl)cc2S(=O)(=O)N1 (stereo not shown) [Example 225, 7-Chloro-N-(3-hydroxy-2-phenylpropyl)-2H-benzo[e][1,2,4]thiadiazine-3-carboxamide 1,1-dioxide] |  | 5.29 | < 3.90 | < 4.40 | 6.35 | 5.84 | < 4.40 |  |
| COCC(CNC(=O)C1=Nc2ccc(Cl)cc2S(=O)(=O)N1)c1ccccc1 (stereo not shown) [Example 226, 7-Chloro-N-(3-methoxy-2-phenylpropyl)-2H-benzo[e][1,2,4]thiadiazine-3-carboxamide 1,1-dioxide] |  | 5.43 | < 3.90 | 4.61 | 7.12 | 5.72 | < 4.40 |  |
| O=C(NCC(c1ncco1)c1ccccc1O)C1=Nc2ccc(I)cc2S(=O)(=O)N1 (stereo not shown) [Example 228, N-(2-(2-Hydroxyphenyl)-2-(oxazol-2-yl)ethyl)-7-iodo-2H-benzo[e][1,2,4]thiadiazine-3-carboxamide 1,1-dioxide] | 5.19 | 6.95 | 5.02 | 5.49 | 8.15 | 7.04 | 5.24 |  |
| Cc1ccccc1C(CNC(=O)C1=Nc2ccc(I)cc2S(=O)(=O)N1)c1ncco1 (stereo not shown) [Example 237, 7-iodo-N-(2-(oxazol-2-yl)-2-(o-tolyl)ethyl)-2H-benzo[e][1,2,4]thiadiazine-3-carboxamide 1,1-dioxide] | 5.20 | 6.79 | 4.82 | 6.30 | 8.00 | 6.92 | 5.47 |  |
| COCc1cnn(-c2ccccc2CCNC(=O)C2=Nc3ccc(I)cc3S(=O)(=O)N2)n1 [Example 239, 7-iodo-N-(2-(4-(methoxymethyl)-2H-1,2,3-triazol-2-yl)phenethyl)-2H-benzo[e][1,2,4]thiadiazine-3-carboxamide 1,1-dioxide] | < 3.90 | 6.22 | 4.12 | 4.72 | 7.77 | 6.16 |  |  |
| O=C(NCCc1ccccc1-n1cccn1)C1=Nc2ccc(I)cc2S(=O)(=O)N1 [Example 240, N-(2-(1H-pyrazol-1-yl)phenethyl)-7-iodo-2H-benzo[e][1,2,4]thiadiazine-3-carboxamide 1,1-dioxide] |  | 6.51 | 4.20 | 5.48 | 7.68 | 6.87 | 4.95 |  |
| O=C(NCC(c1ccccn1)n1cccn1)C1=Nc2ccc(Br)cc2S(=O)(=O)N1 (stereo not shown) [Example 244, N-(2-(1H-Pyrazol-1-yl)-2-(pyridin-2-yl)ethyl)-7-bromo-4H-benzo[e][1,2,4]thiadiazine-3-carboxamide 1,1-dioxide] | 4.08 | 4.84 |  | < 4.40 | 5.17 | 5.42 |  |  |
